In patent US20050164951A1, “Inhibitors for the soluble epoxide hydrolase” (The Regents of the University of California, priority 2003, published 2005):
Like-named read-outs stand apart in the source and are kept apart here.

How the values were obtained:
mouse sEH = target: T1, mouse sEH (Mus musculus, UniProt P34914); assay: Inhibition of recombinant mouse sEH, IC50 assay with 4-nitrophenyl-trans-2,3-epoxy-3-phenylpropyl carbonate as substrate; type: biochemical
T1 construct: made in house; host or cells: baculovirus expression system
T1 sequence (P34914 1-554): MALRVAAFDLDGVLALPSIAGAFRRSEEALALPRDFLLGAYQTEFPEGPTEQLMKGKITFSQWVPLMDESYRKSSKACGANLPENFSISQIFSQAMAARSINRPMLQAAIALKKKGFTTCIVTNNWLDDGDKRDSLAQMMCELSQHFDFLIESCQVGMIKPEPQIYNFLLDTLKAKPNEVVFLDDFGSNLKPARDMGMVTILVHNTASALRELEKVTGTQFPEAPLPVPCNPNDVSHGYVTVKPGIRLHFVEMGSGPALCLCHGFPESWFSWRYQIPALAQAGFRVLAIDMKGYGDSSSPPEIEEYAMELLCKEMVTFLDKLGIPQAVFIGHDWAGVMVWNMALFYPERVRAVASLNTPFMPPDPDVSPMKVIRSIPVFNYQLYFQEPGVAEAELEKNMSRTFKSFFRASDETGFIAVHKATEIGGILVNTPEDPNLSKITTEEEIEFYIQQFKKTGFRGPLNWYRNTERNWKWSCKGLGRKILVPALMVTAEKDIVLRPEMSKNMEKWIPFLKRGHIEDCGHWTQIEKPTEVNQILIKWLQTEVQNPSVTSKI
Description: (§1) Assays were performed in triplicate. […] The curve was generated from at least three separate runs, each in triplicate, to obtain the standard deviation (SD) given in Table 1 thru Table 4.

human sEH = target: T2, human sEH (Homo sapiens, UniProt P34913); assay: Inhibition of recombinant human sEH, IC50 assay with 4-nitrophenyl-trans-2,3-epoxy-3-phenylpropyl carbonate as substrate; type: biochemical
T2 construct: made in house; host or cells: baculovirus expression system
T2 sequence (P34913 1-555): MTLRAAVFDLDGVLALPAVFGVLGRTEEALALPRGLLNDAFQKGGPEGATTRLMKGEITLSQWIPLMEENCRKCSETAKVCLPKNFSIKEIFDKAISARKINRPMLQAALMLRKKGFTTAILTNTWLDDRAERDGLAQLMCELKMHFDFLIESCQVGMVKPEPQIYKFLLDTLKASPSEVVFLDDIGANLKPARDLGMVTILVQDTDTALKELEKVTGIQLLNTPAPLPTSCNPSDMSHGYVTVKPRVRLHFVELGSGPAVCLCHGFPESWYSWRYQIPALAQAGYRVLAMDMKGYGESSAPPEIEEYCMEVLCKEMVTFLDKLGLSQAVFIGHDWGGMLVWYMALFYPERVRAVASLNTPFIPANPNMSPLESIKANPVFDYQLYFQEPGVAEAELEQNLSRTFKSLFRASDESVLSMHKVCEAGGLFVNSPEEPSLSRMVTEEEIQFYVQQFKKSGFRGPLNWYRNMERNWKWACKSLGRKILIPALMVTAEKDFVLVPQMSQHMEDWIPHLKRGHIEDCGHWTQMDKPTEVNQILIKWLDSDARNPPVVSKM
Description: as §1

[1] = Tables 17a and b, read-out: IC50 (μM) Mouse sEH
[2] = Tables 17a and b, read-out: IC50 (μM) Human sEH
[3] = Table 8, established protocols, read-out: IC50 (μM) Mouse sEH
[4] = Table 8, established protocols, read-out: IC50 (μM) Human sEH
[5] = Table 9, established protocols, read-out: IC50 (μM) Mouse sEH
[6] = Table 7, established protocols, read-out: IC50 (μM) Mouse sEH
[7] = Table 7, established protocols, read-out: IC50 (μM) Human sEH
[8] = Table 1, 0.12 μM enzyme, 5 min preincubation, pH 7.4, 30° C., [S] = 40 μM, means ± SD of three experiments, read-out: IC50 (μM) Mouse sEH
[9] = Table 1, […] enzyme, 5 min preincubation, pH 7.4, 30° C., [S] = 40 μM, means ± SD of three experiments, read-out: IC50 (μM) Human sEH

| Structure (SMILES) | IC50 (mouse sEH; [1]) [µM] | IC50 (human sEH; [2]) [µM] | further results |
| --- | --- | --- | --- |
| CCOC(=O)c1ccc(COC(=O)C2CCCC(NC(=O)NC34CC5CC(CC(C5)C3)C4)C2)cc1 (stereo not shown) [Compound 942] | 0.05 ± 0.01 | 0.1 ± 0.01 |  |
| O=C(CC1CCCCC1)Nc1cccc(Cl)c1 [Compound 966] | 0.58 ± 0.01 | 2.1 ± 0.01 |  |
| CCCCC(CO)NC(=O)Nc1cccc(Cl)c1 (stereo not shown) [Compound 978] | 8.4 ± 0.01 | 1.9 ± 0.01 |  |
| CCOC(=O)COC(=O)CCCNC(=O)NC12CC3CC(CC(C3)C1)C2 [Compound 857] |  |  | IC90 (mouse sEH; Table 5, 0.12 μM enzyme, 5 min preincubation, pH 7.4, 30° C., means ± SD): 110 ± 10 nM; IC50 (mouse sEH; Table 5, […] enzyme, 5 min preincubation, pH 7.4, 30° C., means ± SD, read-out: Mouse sEH IC50): 0.05 ± 0.01 µM; IC90 (human sEH; Table 5, 0.24 μM enzyme, 5 min preincubation, pH 7.4, 30° C., means ± SD): 9000 ± 2000 nM; IC50 (human sEH; Table 5, […] enzyme, 5 min preincubation, pH 7.4, 30° C., means ± SD, read-out: Human sEH IC50): 0.39 ± 0.01 µM |
| O=C(NCCCCCOCCC(F)(F)F)NC12CC3CC(CC(C3)C1)C2 [Compound 957] | 0.05 ± 0.01 | 0.23 ± 0.01 |  |
| COC(=O)CCCCCCCCCCCNC(=O)NC12CC3CC(CC(C3)C1)C2 [Compound 780, 1-(1-adamantyl)-3-(11-methoxycarbonylundecyl)urea] |  |  | IC50 (mouse sEH; Table 4, […] enzyme, 5 min preincubation, pH 7.4, 30° C., means ± SD, read-out: IC50 (μM) Mouse sEH): 0.05 ± 0.01 µM; IC50 (human sEH; Table 4, […] enzyme, 5 min preincubation, pH 7.4, 30° C., means ± SD, read-out: IC50 (μM) Human sEH): 0.1 ± 0.01 µM |
| O=C(CC1CCCCC1)NCCCc1ccccc1 [Compound 990] | 0.73 ± 0.01 | 1.1 ± 0.01 |  |
| CCCCCOC(=O)CCCCC(=O)NC12CC3CC(CC(C3)C1)C2 [Compound 834] |  |  | IC50 (mouse sEH; [3]): 0.34 ± 0.01 µM; IC50 (human sEH; [4]): 2.4 ± 0.2 µM |
| CCCCCCCCCCNC(=O)CC12CC3CC(CC(C3)C1)C2 [Compound 1018] |  |  | IC50 (mouse sEH; [3]): 0.05 ± 0.01 µM; IC50 (human sEH; [4]): 0.1 ± 0.01 µM |
| CCOC(=O)c1ccc(C(C#N)OC(=O)C2CCCC(NC(=O)NC34CC5CC(CC(C5)C3)C4)C2)cc1 (stereo not shown) [Compound 1014] |  |  | IC50 (mouse sEH; [5]): 0.05 ± 0.01 µM; IC50 (human sEH; Table 9, established protocols, read-out: IC50 (μM) Human sEH): 0.14 ± 0.01 µM |
| CN(C)c1cccc2c(S(=O)(=O)NCCNC(=O)NC34CC5CC(CC(C5)C3)C4)cccc12 [Compound 907] | 0.4 ± 0.01 | 0.6 ± 0.01 |  |
| CCCCCOC(=O)CCCn1ccn(C23CC4CC(CC(C4)C2)C3)c1=O [Compound 958] | 0.7 ± 0.01 | 17 ± 0.01 |  |
| O=C(NCCCN1CCOCC1)NC12CC3CC(CC(C3)C1)C2 [Compound 1016] | 0.05 ± 0.01 | 6 ± 0.01 |  |
| CCCCC(O)CCCCNC(=O)NC12CC3CC(CC(C3)C1)C2 (stereo not shown) [Compound 994] | 0.05 ± 0.01 | 0.1 ± 0.01 |  |
| O=C(NCCCCCOCCCCCOCC(F)(F)F)NC12CC3CC(CC(C3)C1)C2 [Compound 1004] | 0.05 ± 0.01 | 0.16 ± 0.01 | IC50 (mouse sEH; [6]): 0.05 ± 0.01 µM; IC50 (human sEH; [7]): 0.13 ± 0.01 µM |
| COC(=O)CCCCNC(=O)NC1CCCCC1 [Compound 854] |  |  | IC50 (mouse sEH; [8]): 0.13 ± 0.03 µM; IC50 (human sEH; [9]): 5 ± 0.6 µM |
| CCCC(C)COCCOCCOCCCCCNC(=O)NC12CC3CC(CC(C3)C1)C2 (stereo not shown) [Compound 1003] | 0.05 ± 0.01 | 0.13 ± 0.01 | IC50 (mouse sEH; [6]): 0.05 ± 0.01 µM; IC50 (human sEH; [7]): 0.13 ± 0.01 µM |
| CCCCCCC(=O)CCCNC(=O)Nc1cccc(Cl)c1 [Compound 794, 1-(3-chlorophenyl)-3-(4-oxodecyl)urea] |  |  | IC50 (mouse sEH; Table 3, […] enzyme, 5 min preincubation, pH 7.4, 30° C., means ± SD, read-out: IC50 (μM) Mouse sEH): 0.41 ± 0.05 µM; IC50 (human sEH; Table 3, […] enzyme, 5 min preincubation, pH 7.4, 30° C., means ± SD, read-out: IC50 (μM) Human sEH): 2.1 ± 0.2 µM |
| O=C(O)CCCCNC(=O)NC1CCCCC1 [Compound 884] |  |  | IC50 (mouse sEH; [8]): 0.25 ± 0.02 µM; IC50 (human sEH; [9]): 2.4 ± 0.1 µM |
| CC(C)c1cccc2c(S(=O)(=O)NCCCOCCCCCNC(=O)NC34CC5CC(CC(C5)C3)C4)cccc12 [Compound 986] | 0.05 ± 0.01 | 0.29 ± 0.01 |  |
| O=C(NCCCCCCCCCCCCN[S+]([O-])NC12CC3CC(CC(C3)C1)C2)NC12CC3CC(CC(C3)C1)C2 (stereo not shown) [Compound 902] | 0.45 ± 0.01 | 0.44 ± 0.01 |  |
| CCCCCOC(=O)C1CCCC(NC(=O)NC23CC4CC(CC(C4)C2)C3)C1 (stereo not shown) [Compound 861] |  |  | IC50 (mouse sEH; [5]): 0.05 ± 0.01 µM; IC50 (human sEH; read-out: IC50 (μM) Human sEH): 0.1 ± 0.01 µM |
| C#CCCCCCCNC(=O)NC12CC3CC(CC(C3)C1)C2 [Compound 900] | 0.05 ± 0.01 | 0.1 ± 0.01 |  |
